Results published in patent US20070203248A1, “Cardioprotective agents” (DABUR RESEARCH FOUNDATION., priority 2003, published 2007).
Several values for one entry are separate records, joined by “and”; a condition that tells them apart may be missing. Identical values can stand only once. Like-named read-outs stand apart in the source and are kept apart here.

Experiments:
[1] = DPPH free radical scavenging assay in vitro; type: biochemical; conditions: for Mean percent Radical scavenging: DPPH, 5 minutes
Procedure: The free radical scavenging potential of 5-Methoxytryptamine was evaluated by the 1,1 diphenyl-2 picryl hydrazyl (DPPH) assay as described (Hycon, Lee et al, Arch. Pharm. Res. 19 (3), 223-227). […] 5-Methoxytryptamine was dissolved in 3.5% ethanol in normal saline and screened for its radical scavenging activity in concentration ranging from 1-1000 ug/ml. 100 ul of 0.2 mM DPPH was incubated with 100 ul of varying concentrations of 5-Methoxy tryptamine in 96 well tissue culture plates for 20 seconds at room temperature. All experiments were carried out in triplicates. 3.5% ethanol in normal saline was similarly incubated with 0.2 mM DPPH in control experiments for evaluating the effect of the vehicle on radical scavenging. The change in absorbance of DPPH incubated with varying concentrations of 5-Methoxy tryptamine of the vehicle was read at 517 nm for every 60 secs for 5 minutes. The absorbance of 0.2 mM DPPH taken after incubating for 5 minutes at room temperature was the blank O.D. The percent free radical scavenging ability of 5-Methoxy tryptamine was calculated as defined below. Percent Free Radical scavenging=Blank OD at 5 minutes−Sample OD at 5 minutes×100/Blank OD at 5 minutes

[2] = test system: Adriamycin treated animals
Procedure: The effect of 5-Methoxy tryptamine on circulating CK-MB levels was quantitated as described. Briefly male Wistar rats of the age group 5-6 weeks were maintained on normal rat pellets ad libidum. Rats were divided into four groups viz. Groups I, II, III and IV.
(§1) Group II: Animals treated with Adriamycin
(§2) Group III: Animals treated with Adriamycin and 5-Methoxytryptamine
Group IV: Animals treated with 5-Methoxytryptamine.
Each group consisted of 6 animals. 5 mg/kg of Adriamycin was administered intraperitoneally to animals of groups II and III as two equal divided doses once every seven days. The animals comprising Group III were injected intraperitoneally with 17.5 mg/kg of 5-Methoxytryptamine, as seven equal doses given every alternate day. The animals of the group III were injected with 5-Methoxytryptamine, 30 minutes prior to the Adriamycin injection. The animals comprising Group IV were treated with 17.5 mg/kg of 5-Methoxytryptamine as seven equal doses, given every alternate day. At the 41st day of the study, blood was collected from the retroorbital vein of all the animals in the study. The blood was kept at room temperature for 15 minutes, and spun at 3000 rpm for 15 minutes. […] The quantitation was carried out by kits procured from Bayer Diagnostics using RA 50 Chemistry Analyzer (Bayer Diagnostics), as per the manufacturers instructions.

human tumour cell lines = assay: MTT cytotoxicity assay, effect of 5-Methoxytryptamine on anticancer activity of Adriamycin; type: cell-based; conditions: 5-Methoxytryptamine at its highest concentration 1 ug/ml; MCF7, DU145, MiaPaCa2, HT 29
Procedure: Adriamycin was dissolved in saline immediately before use. […] 1 ug/ml.

[3] = test system: Adriamycin treated rat myocardium; conditions: for LP (lipid peroxidation), myocardium: 24 hours
From the text: The effect of 5-Methoxytryptamine on lipid peroxidation in Adriamycin treated myocardial tissue was quantitated by Thiobarbituric acid reactive substances based assay as described (Uchiyama and Mihara, M., Anal. Biochem. 86, 271-278, 1978). Briefly male Wistar rats of the age group 5-6 weeks were maintained on normal rat pellets ad libitum. Rats were divided into four groups viz Groups I, II, III and IV.
Group II, Animals treated with Adriamycin
(§3) Group III: Animals treated with 5-Methoxytryptamine and Adriamycin.
(§4) Group IV: Animals treated with 5 Methoxytryptamine
Each group consisted of 5 animals. 30 mg/kg body weight of Adriamycin was administered intraperitoneally to animals in Groups II and III. The animals comprising group III, were injected intraperitoneally with 5-Methoxytryptamine in concentration ranging from 8.5-35 mg/kg body weight 30 minutes prior to the Adriamycin treatment. The animals comprising group IV, were injected intraperitoneally with 5-Methoxytryptamine in concentration ranging from 8.5-35 mg/kg body weight. 24 hours later, the beating hearts of the animals were excised by decapitation. The heart tissue was washed in ice cold saline twice, weighed and snap frozen at −70° C. for assaying for Lipid peroxidation.
Briefly 200 mg of the live rat myocardial tissue was excised and homogenized in 2 ml of ice cold 10% Trichloro acetic acid buffer (TCA) buffer. To 200 ul of the homogenate thus obtained, 200 ul of 8.1% SDS, 1.5 ml of 20% Acetic acid, 1.5 ml of 0.8% of Thiobarbituric acid (TBA) and 1.0 ml of water was added in glass test tubes. The tubes were heated at 95° C. for 60 minutes. The mixture was cooled and diluted with 1 ml of double distilled water. A mixture of n-butanol and pyridine was prepared fresh in the ratio of 15:1 respectively. 5 ml of the n-butanol-pyridine mix was added to each tube containing the cardiac tissue homogenates. The tubes were centrifuged at 3000 rpm for 10 minutes at 4° C. 200 ul of the coloured liquid was collected from at the interphase of the aqueous and organic layers and the absorbance was measured spectrophotometrically at 532 nm. The control experiments contained only the TCA buffer treated similarly. The standard tubes contained Malonaldehyde in concentrations ranging from 2.5-25 uM. Malonaldehyde was dissolved in double distilled water. All experiments were carried out in triplicates. The extent of lipid peroxidation in the cardiac homogenates was expressed as uM/gm of the cardiac tissue. The extent of lipid peroxidation was calculated for the cardiac tissues of the animals comprising Groups I, II, III and IV.

[4] = test system: Adriamycin treated rat myocardium; conditions: for SOD (Superoxide Dismutase), myocardium: 24 hours
Procedure: (§5) Briefly male Wistar rats of the age group 5-6 weeks were maintained on normal rat pellets ad libitum. Rats were divided into four groups viz. Groups I, II, III and IV.
as §1
Each group consisted of 5 animals. 30 mg/kg body weight of Adriamycin was administered intraperitoneally to animals in Groups II and III. […] 24 hours later, the beating hearts of the animals were excised by decapitation. The heart tissue was washed in ice cold saline twice, weighed and frozen for assaying Superoxide Dismutase activity.
Briefly, 200 mg of rat myocardial tissue was excised and homogenized in 2 ml of ice cold Tris sucrose buffer (pH 7.4). The homogenate was centrifuged at 10000 rpm, at 4° C. for 10 minutes, and the supernatent carefully aspirated and collected. For each experiment, 1.2 ml of sodium pyrophosphate buffer was taken in clean glass tubes. To this 100 ul of 186 uM Phenazine methosulphate solution, 300 ul of a 300 uM solution of Nitroblue tetrazolium and 600 ul of double distilled water was added and mixed well. 600 ul of the supernatent obtained earlier was added per tube. A solution of NADH of the concentration 780 uM was freshly prepared for the experiments. The reaction in the tubes was initiated by the addition of 200 ul of a 780 uM solution of NADH per tube. The tubes were incubated for 90 seconds at room temperature. The reaction was stopped by the addition of 1 ml of 100% glacial acetic acid per tube and the absorbance measured spectrophotometrically at 560 nM. All experiments were carried out in triplicates. The control experiments contained only ice cold Tris Sucrose buffer (pH 7.4) treated identically. The standard tubes contained the enzyme Superoxide Dimutase dissolved in double distilled water in concentrations ranging from 0.1 U to 20 Units treated identically as above. The enzyme activity in the tissue homogenates was quantitated by rate of decrease in optical density at 560 nm, and expressed as units/mg protein. The Superoxide Dismutase activity was calculated for the cardiac tissues of the animals comprising Groups I, II, III and IV.

[5] = test system: Adriamycin treated animals; remark: listed apart in the source
Procedure: The effect of 5-Methoxytryptamine on circulating LDH levels was quantitated as described. Briefly male Wistar rats of the age group 5-6 weeks were maintained on normal rat pellets ad libidum. Rats were divided into four groups viz. Groups I, II, III and IV.
as §1, §2, §4
Each group consisted of 6 animals. 5 mg/kg of Adriamycin was administered intraperitoneally to animals of groups II and III as two equal divided doses once every seven days. The animals comprising Group III were injected intraperitoneally with 17.5 mg/kg of 5-Methoxytryptamine, as seven equal doses given every alternate day. The animals of the group III were injected with 5-Methoxytryptamine, 30 minutes prior to the Adriamycin injection. The animals comprising Group IV were treated with 17.5 mg/kg of 5-Methoxytryptamine as seven equal doses, given every alternate day. At the 41st day of the study, blood was collected from the retroorbital vein of all the animals in the study. The blood was kept at room temperature for 15 minutes, and spun at 3000 rpm for 15 minutes. […] The quantitation was carried out by kits procured from Bayer Diagnostics using RA 50 Chemistry Analyzer (Bayer Diagnostics), as per the manufacturer's instructions.

[6] = test system: Adriamycin treated rat liver tissue; conditions: for LP (lipid peroxidation), liver: 24 hours
Procedure: as §5, §1, §3
Group IV: Animals treated with 5-Methoxytryptamine
Each group consisted of 5 animals. 30 mg/kg body weight of Adriamycin was administered intraperitoneally to animals in Groups II and III. The animals comprising group III, were injected intraperitoneally with 5-Methoxytryptamine in concentrations ranging from 8.5-35 mg/kg body weight 30 minutes prior to the Adriamycin treatment. The animals comprising group IV, were injected intraperitoneally with 5-Methoxytryptamine in concentrations ranging from 8.5-35 mg/kg body weight. 24 hours later, the liver tissue of the animals were excised. The liver tissue was washed in ice cold saline twice, weighed and snap frozen at −70° C. for assaying for Lipid peroxidation.
Briefly 200 mg of the rat liver tissue was excised and homogenized in 2 ml of ice cold 10% Trichloro acetic acid buffer (TCA) buffer. To 200 ul of the homogenate thus obtained, 200 ul of 8.1% SDS, 1.5 ml of 20% Acetic acid, 1.5 ml of 0.8% of Thiobarbituric acid (TBA) and 1.0 ml of water was added in glass test tubes. The tubes were heated at 95° C. for 60 minutes. The mixture was cooled and diluted with 1 ml of double distilled water. A mixture of n-butanol and pyridine was prepared fresh in the ratio of 15:1 respectively. 5 ml of the n-butanol-pyridine mix was added to each tube containing the liver tissue homogenates. The tubes were centrifuged at 3000 rpm for 10 minutes at 4° C. 200 ul of the colored liquid was collected from the interphase of the aqueous and organic layers and the absorbance was measured spectrophotometrically at 532 nm. The control experiments contained only the TCA buffer treated similarly. The standard tubes contained Malonaldehyde in concentrations ranging from 2.5-25 uM. Malonaldehyde was dissolved in double distilled water. All experiments were carried out in triplicates. The extent of lipid peroxidation in the liver homogenates was expressed as uM/gm of the liver tissue. The extent of lipid peroxidation was calculated for the liver tissues of the animals comprising Groups I, II, III and IV.

[7] = Group IV: 5-Methoxytryptamine 17.5 mg/kg as seven doses every alternate day, alone, serum, day 41
[8] = 8.5-35 mg/kg, 30 mg/kg doxorubicin
[9] = Group IV A: 5 MT 8.5 mg/kg i.p. alone
[10] = Group IV B: 5 MT 17 mg/kg i.p. alone
[11] = Group IV C: 5 MT 35 mg/kg i.p. alone

## COc1ccc2[nH]cc(CCN)c2c1 [5-Methoxytryptamine]
[1]; 31 ug/ml
  Mean percent Radical scavenging: 10 ± 4.3%
[1]; 62.5 ug/ml
  Mean percent Radical scavenging: 25 ± 5.0%
[1]; 125 ug/ml
  Mean percent Radical scavenging: 75.4 ± 5.5%
[1]; 250 ug/ml
  Mean percent Radical scavenging: 85.24 ± 4.8%
[1]; 500 ug/ml
  Mean percent Radical scavenging: 87.4 ± 5.0%
[1]; 1000 ug/ml
  Mean percent Radical scavenging: 88.25% and 88.25 ± 5.1%
[1]; DPPH in vitro
  Concentration range in which free radicals are scavenged: 31 to 1000 µg/mL
[2]; 17.5 mg/kg, Adriamycin 5 mg/kg
  Effect on CK-MB levels in Adriamycin treated animals: reduces the CK-MB levels
[2]; [7]
  CK - MB: 379 ± 26 U/L
Human tumour cell lines
  Effect of addition on ED50 values of the cytotoxicity of Adriamycin: is not altered
[3]; 8.5-35 mg/kg alone
  Effect on lipid peroxidation in rat myocardial tissue, alone: did not alter the lipid peroxidation
[3]; [8]
  Effect on lipid peroxidation in rat myocardial tissue treated with doxorubicin: inhibits the lipid peroxidation
[3]; [9]
  LP (lipid peroxidation), myocardium: 535 ± 12.5 µmol/g
[3]; [10]
  LP (lipid peroxidation), myocardium: 500 ± 14.5 µmol/g
[3]; [11]
  LP (lipid peroxidation), myocardium: 513 ± 12.3 µmol/g
[4]; 8.5-35 mg/kg alone
  Effect on Superoxide Dismutase activity in rat myocardium, alone: did not alter the Superoxide Dismutase activity
[4]; [8]
  Effect on Superoxide Dismutase activity in rat myocardium treated with Doxorubicin: increases the Superoxide Dismutase activity
[4]; [9]
  SOD (Superoxide Dismutase), myocardium: 32 ± 2.5 U/mg
[4]; [10]
  SOD (Superoxide Dismutase), myocardium: 30 ± 2.9 U/mg
[4]; [11]
  SOD (Superoxide Dismutase), myocardium: 34 ± 4.5 U/mg
[5]; 17.5 mg/kg, Adriamycin 5 mg/kg
  Effect on LDH levels in Adriamycin treated animals: reduces the LDH levels
[5]; [7]
  LDH: 1009 ± 26 U/L
[6]; 8.5-35 mg/kg alone
  Effect on lipid peroxidation in rat liver tissue, alone: does not alter the lipid peroxidation
[6]; [9]
  LP (lipid peroxidation), liver: 601 ± 16.5 µmol/g
[6]; [10]
  LP (lipid peroxidation), liver: 625 ± 15.5 µmol/g
[6]; [11]
  LP (lipid peroxidation), liver: 630 ± 16.3 µmol/g
